Assays:
Candida albicans [1] = assay: Synergism of menthol, menthyl acetate or their ratios with antifungal drugs (MIC, FIC, fold enhancement); assay type: cell-based, Candida albicans (MTCC1637 equivalent to ATCC 18804); settings: for synergism of the individual compound with Clotrimazole, Amphotericin B and Nystatin: individual compound at a concentration of 0.25 μg/ml
Method: In the present invention Candida albicans (MTCC1637 equivalent to ATCC 18804)=Interdigital mycoses, Neotype strain, production of citric acid) is used for all the experimentations (MTCC=Microbial type culture collection, Institute of Microbial Technology, Chandigarh, India). […]
The fractional inhibitory concentrations (FIC) are calculated by dividing the MIC of the combination with the MIC of antifungal compound alone. The enhancement is calculated by dividing the MIC of the antifungal compound with the MIC of the combination. […] Similarly, the maximum enhancement of Amphotericin is detected for the same set of ratios (2114, 2115, 2116). The enhancement of Nystatin is detected in the combinations with ratios 2112 and 2114. (TABLE 3)

Candida albicans [2] = assay: Minimum inhibitory concentration (MIC) in broth culture of Candida albicans; assay type: cell-based, Candida albicans (MTCC1637 equivalent to ATCC 18804); settings: for activity of the components at the concentrations used: proportional concentrations within 0.25 μg/ml
Method: In the present invention Candida albicans (MTCC1637 equivalent to ATCC 18804)=Interdigital mycoses, Neotype strain, production of citric acid) is used for all the experimentations (MTCC=Microbial type culture collection, Institute of Microbial Technology, Chandigarh, India).
The minimum inhibitory concentrations (MIC) of the compound menthyl acetate and menthol is determined in broth culture of Candida albicans and is estimated to be […] and 500 μg/ml respectively.
A combination of the two compounds menthol and menthyl acetate in 1:1 ratio is evaluated for synergistic action if any. […] Therefore this combination is further tested for activity against Candida in combination with known antifungal drugs.
Following ratios are prepared by dissolving menthol in menthyl acetate. The ratios are tested for minimum inhibitory concentration in broth cultures of Candida albicans. As mentioned in the TABLE 1, the MIC of ratios are several folds lower than the additive MIC of individual compounds. Identification numbers of the ratios are the numbers given to identify the combination and mean nothing more than this. […] All these combinations are found to be synergistic for antifungal activities.

[3] = antifungal drug alone or with menthol/menthyl acetate combination at 0.25 μg/ml

Structure (SMILES): C[C@@H]1[C@H](O)[C@@H](C)/C=C/C=C/CC/C=C/C=C/C=C/C=C/C(O[C@H]2O[C@H](C)[C@@H](O)[C@H](N)[C@@H]2O)CC2O[C@](O)(CC(O)C(O)CCC(O)CC(O)CC(O)CC(=O)O[C@H]1C)CC(O)C2C(=O)O (stereo partly drawn) [Nystatin (N), Nystatin]
- MIC (Candida albicans [1]; Nystatin (N) + Menthol (μg/ml)): 5.0 µg/mL
- MIC (Candida albicans [1]; Nystatin (N) + Menthyl acetate (μg/ml)): 5.0 µg/mL
- MIC (Candida albicans [1]; [3]): 5.0 µg/mL

Structure (SMILES): CC1CCC(C(C)C)C(O)C1 (stereo not drawn) [menthol]
- MIC (Candida albicans [2]; broth culture of Candida albicans, read-out: minimum inhibitory concentrations (MIC)): 500 µg/mL
- activity of the components at the concentrations used (Candida albicans [2]): do not have any activity
- synergism of the individual compound with Clotrimazole, Amphotericin B and Nystatin (Candida albicans [1]): neither menthol nor menthyl acetate could lower the MIC

Structure (SMILES): C[C@@H]1[C@H](O)[C@@H](C)/C=C/C=C/C=C/C=C/C=C/C=C/C=C/[C@H](O[C@@H]2O[C@H](C)[C@@H](O)[C@H](N)[C@@H]2O)C[C@@H]2O[C@](O)(C[C@@H](O)C[C@@H](O)[C@H](O)CC[C@@H](O)C[C@@H](O)CC(=O)O[C@H]1C)C[C@H](O)[C@H]2C(=O)O [Amphotericin B (A), Amphotericin B]
- MIC (Candida albicans [1]; Amphotericin B (A) + Menthyl acetate (μg/ml)): 2.5 µg/mL
- MIC (Candida albicans [1]; Candida albicans, Amphotericin B (A) + Menthol (μg/ml), read-out: MIC): 2.5 µg/mL
- MIC (Candida albicans [1]; [3]): 2.5 µg/mL

Structure (SMILES): CC(=O)OC1CC(C)CCC1C(C)C (stereo not drawn) [menthyl acetate]
- minimum inhibitory concentrations (MIC) (Candida albicans [2]; broth culture of Candida albicans, printed as a dilution fraction): 1/400
- activity of the components at the concentrations used (Candida albicans [2]): do not have any activity
- synergism of the individual compound with Clotrimazole, Amphotericin B and Nystatin (Candida albicans [1]): neither menthol nor menthyl acetate could lower the MIC

Structure (SMILES): Clc1ccccc1C(c1ccccc1)(c1ccccc1)n1ccnc1 [Clotrimazole (C), Clotrimazole]
- MIC (Candida albicans [1]; Candida albicans, Clotrimazole (C) + Menthyl acetate (μg/ml), read-out: MIC): 1.25 µg/mL
- MIC (Candida albicans [1]; Clotrimazole (C) + Menthol (μg/ml)): 1.25 μ/ml
- MIC (Candida albicans [1]; [3]): 1.25 µg/mL

— patent US20030158126A1, “Method of treatment for fungal infections with a synergistic formulation of antifungal agents” (priority 2002, published 2003)
